Values joined by “and” are separate entries in the source; they are usually repeats but may differ in a detail not shown here. Equal values may be shown once. Active and inactive are the calls of the source.
How the values were obtained:
[1] = system: INS1; experiment: beta cell apoptosis inhibitors, cytokine rescue, dose response, luminescence, retest (AID 449756); format: functional, cell-based;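 also: cell death triggered by IL-1 beta plus TNF-alpha plus IFN-gamma mixture; protective hits raise ATP signal compared with cytokine alone wells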
[2] = HepG2 cell cytotoxicity, dose response, cytotoxicity control for Shn3 inhibitor project, CellTiter-Glo, cherry-picked (AID 624134); format: functional, cell-based
[3] = target: Protein Wnt-3a (Mus musculus, UniProt P27467); experiment: Wnt3a-driven reporter signaling inhibition, dose response, selectivity assay for Gli-SUFU antagonist project, Wnt-LIGHT cells, luminescence (AID 651570); format: functional; conditions: read-out: IC50_Mean;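 also: Wnt-LIGHT reporter cells stimulated with conditioned medium from Wnt3a-producing cells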
[4] = target: T1, Short transient receptor potential channel 4 (Mus musculus, UniProt Q9QUQ5); experiment: mouse TRPC4 channel activators, dose response, cell-based, HEK293 TRPC4/mu-opioid, Fluo-4 calcium (AID 434937); format: functional
T1 sequence (Q9QUQ5 whole entry): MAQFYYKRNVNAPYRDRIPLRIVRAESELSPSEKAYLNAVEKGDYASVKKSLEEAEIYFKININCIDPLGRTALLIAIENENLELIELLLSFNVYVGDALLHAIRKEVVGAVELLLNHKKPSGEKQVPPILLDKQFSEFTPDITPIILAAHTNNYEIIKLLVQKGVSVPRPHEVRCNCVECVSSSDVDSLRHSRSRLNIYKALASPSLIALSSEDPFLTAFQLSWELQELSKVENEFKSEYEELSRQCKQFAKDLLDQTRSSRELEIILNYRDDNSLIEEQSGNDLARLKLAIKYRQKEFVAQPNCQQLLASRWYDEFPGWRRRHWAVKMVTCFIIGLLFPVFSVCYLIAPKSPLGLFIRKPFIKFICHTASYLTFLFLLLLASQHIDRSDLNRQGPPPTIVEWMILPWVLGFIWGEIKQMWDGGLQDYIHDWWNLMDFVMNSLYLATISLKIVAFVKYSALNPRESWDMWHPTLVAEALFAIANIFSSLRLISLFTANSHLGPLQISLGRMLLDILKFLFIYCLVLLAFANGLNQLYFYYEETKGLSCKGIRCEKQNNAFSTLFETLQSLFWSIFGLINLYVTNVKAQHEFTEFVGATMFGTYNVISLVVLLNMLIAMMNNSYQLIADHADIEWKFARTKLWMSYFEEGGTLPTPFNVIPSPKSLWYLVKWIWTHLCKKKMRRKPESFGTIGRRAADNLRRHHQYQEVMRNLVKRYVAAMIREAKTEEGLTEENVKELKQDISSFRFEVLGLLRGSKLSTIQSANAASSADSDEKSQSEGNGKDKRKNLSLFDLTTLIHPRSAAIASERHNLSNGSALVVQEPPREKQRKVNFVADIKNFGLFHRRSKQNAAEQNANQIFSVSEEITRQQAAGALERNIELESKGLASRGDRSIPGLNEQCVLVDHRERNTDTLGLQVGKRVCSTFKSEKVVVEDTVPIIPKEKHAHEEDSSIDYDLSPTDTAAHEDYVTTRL

[5] = Shn3 3'UTR reporter inhibitors, dose response, cell-based, Clone20 osteoblasts, firefly luciferase, cherry-picked (AID 624132); format: functional;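 also: firefly luciferase luminescence from reporter carrying the Shn3 3'UTR in osteoblasts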
[6] = control 3'UTR Renilla luciferase suppression, dose response, counter-screen for Shn3 inhibitor project, cell-based, Clone20-Shn3RL, cherry-picked (AID 624133); format: functional
[7] = target: Hepatocyte nuclear factor 4-alpha (Homo sapiens, UniProt P41235); format: functional, cell-based;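 also: biochemical luminescence-based dose-response counterscreen measuring inhibition of HNF4 dimerization, run alongside a screen for blockers of ABHD5–perilipin-5 interaction; split luciferase complementation of HNF4 fusion proteins in cell lysate measuring dimerization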
[8] = target: Tyrosine-protein phosphatase non-receptor type 11 (Homo sapiens, UniProt Q06124); experiment: SHP2 phosphatase inhibition, dose response, selectivity assay for STEP inhibitor project, biochemical (AID 602367); format: functional; conditions: read-out: IC50_Mean
[9] = target: Tyrosine-protein phosphatase non-receptor type 5 (Homo sapiens, UniProt P54829); experiment: STEP phosphatase inhibitors, confirmation, biochemical, fluorescence intensity, uHTS hits (AID 602372); format: functional; conditions: read-out: IC50_Mean
[10] = target: Dual specificity protein phosphatase 3 (Homo sapiens, UniProt P51452); experiment: VHR phosphatase inhibition, dose response, selectivity assay for STEP inhibitor project, biochemical (AID 602374); format: functional; conditions: read-out: IC50_Mean
[11] = system: Vero; experiment: cells; format: functional; conditions: Chlorocebus sabaeus
[12] = target: Heat shock protein HSP 90-alpha (Homo sapiens, UniProt P07900); format: functional, organism-based
[13] = target: T2, Protein RecA (Mycobacterium tuberculosis, UniProt P9WHJ3); experiment: Fluorescence Cell-Free Homogeneous Dose Retest to Identify Inhibitors of RecA-Intein Splicing Activity. [Related pubchem assays (depositor defined):AID2097, AID2223, AID489010, AID492950]; format: functional
T2 sequence (P9WHJ3 whole entry): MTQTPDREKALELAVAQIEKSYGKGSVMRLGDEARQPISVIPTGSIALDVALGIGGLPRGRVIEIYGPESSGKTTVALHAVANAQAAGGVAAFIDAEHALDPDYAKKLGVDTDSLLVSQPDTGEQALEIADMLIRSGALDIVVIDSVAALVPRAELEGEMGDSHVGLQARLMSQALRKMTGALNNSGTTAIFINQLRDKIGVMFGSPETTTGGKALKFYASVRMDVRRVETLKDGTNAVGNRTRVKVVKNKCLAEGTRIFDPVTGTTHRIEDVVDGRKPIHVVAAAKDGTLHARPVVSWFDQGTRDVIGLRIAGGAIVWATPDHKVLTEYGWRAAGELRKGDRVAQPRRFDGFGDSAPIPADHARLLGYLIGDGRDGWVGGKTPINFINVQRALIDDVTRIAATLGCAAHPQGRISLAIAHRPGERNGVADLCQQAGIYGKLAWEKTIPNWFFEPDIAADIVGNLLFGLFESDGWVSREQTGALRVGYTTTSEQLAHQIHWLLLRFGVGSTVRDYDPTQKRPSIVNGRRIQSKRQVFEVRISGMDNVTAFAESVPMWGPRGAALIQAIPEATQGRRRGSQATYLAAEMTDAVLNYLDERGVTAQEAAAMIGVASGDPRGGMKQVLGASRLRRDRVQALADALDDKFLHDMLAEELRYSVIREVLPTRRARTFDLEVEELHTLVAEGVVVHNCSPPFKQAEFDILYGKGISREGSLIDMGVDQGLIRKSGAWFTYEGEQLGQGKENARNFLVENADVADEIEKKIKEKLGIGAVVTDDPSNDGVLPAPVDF

[14] = target: T3, Apoptotic protease-activating factor 1 (Homo sapiens, UniProt O14727); format: functional
T3 sequence (O14727 whole entry): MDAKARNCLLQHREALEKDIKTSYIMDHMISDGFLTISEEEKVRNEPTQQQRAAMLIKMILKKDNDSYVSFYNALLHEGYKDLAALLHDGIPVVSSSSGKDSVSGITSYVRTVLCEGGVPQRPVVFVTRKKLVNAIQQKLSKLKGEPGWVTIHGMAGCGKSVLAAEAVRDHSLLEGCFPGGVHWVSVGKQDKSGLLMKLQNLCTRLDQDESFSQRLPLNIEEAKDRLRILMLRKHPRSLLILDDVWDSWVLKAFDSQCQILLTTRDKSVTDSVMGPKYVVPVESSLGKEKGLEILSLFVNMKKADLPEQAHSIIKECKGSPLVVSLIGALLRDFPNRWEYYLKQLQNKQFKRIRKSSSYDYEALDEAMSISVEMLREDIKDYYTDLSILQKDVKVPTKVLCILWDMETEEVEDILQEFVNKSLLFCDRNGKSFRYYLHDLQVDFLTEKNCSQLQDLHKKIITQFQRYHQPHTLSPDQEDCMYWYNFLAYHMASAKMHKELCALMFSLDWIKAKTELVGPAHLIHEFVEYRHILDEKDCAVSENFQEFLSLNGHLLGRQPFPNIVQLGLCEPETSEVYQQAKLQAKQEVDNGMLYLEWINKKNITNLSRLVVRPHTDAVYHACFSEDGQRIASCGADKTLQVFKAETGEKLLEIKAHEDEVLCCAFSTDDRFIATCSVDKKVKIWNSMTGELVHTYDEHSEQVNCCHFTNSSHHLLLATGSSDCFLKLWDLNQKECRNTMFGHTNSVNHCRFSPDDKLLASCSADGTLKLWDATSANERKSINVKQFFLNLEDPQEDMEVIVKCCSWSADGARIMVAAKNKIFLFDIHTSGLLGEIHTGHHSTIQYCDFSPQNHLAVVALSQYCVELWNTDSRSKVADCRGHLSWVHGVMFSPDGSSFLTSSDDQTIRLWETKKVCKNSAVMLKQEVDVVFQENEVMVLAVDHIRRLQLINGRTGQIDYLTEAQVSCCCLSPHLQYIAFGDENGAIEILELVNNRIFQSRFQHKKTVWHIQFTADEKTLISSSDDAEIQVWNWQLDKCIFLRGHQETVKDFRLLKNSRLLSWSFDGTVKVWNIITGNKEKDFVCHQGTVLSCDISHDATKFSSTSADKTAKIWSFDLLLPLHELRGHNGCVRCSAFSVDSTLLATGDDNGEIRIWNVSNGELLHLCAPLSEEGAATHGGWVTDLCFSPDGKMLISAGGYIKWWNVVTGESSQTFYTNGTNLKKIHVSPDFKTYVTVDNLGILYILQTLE

[15] = target: T4, Bcl-2-related protein A1 (Mus musculus, UniProt Q07440); format: functional;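 also: confirmatory dose–response counterscreen on Bfl-1, used to check hits from a UBC13 polyubiquitin inhibitor campaign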
T4 sequence (Q07440 whole entry): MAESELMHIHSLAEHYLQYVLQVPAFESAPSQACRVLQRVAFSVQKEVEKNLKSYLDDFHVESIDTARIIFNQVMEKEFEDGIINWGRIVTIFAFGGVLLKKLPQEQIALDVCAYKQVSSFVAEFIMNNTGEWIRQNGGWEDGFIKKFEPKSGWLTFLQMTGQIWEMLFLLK

[16] = target: Melanocortin receptor 4 (Homo sapiens, UniProt P32245); format: functional, cell-based;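 also: Cell-based assay with luminescence read-out, confirmatory dose-response testing for agonist activity of biased ligands at MC4R; human U2OS cells with tagged receptor and beta-arrestin; potency of agonists that increase receptor coupling to beta-arrestin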
[17] = target: T5, Ubiquitin-conjugating enzyme E2 N (Homo sapiens, UniProt P61088); format: functional
T5 sequence (P61088 whole entry): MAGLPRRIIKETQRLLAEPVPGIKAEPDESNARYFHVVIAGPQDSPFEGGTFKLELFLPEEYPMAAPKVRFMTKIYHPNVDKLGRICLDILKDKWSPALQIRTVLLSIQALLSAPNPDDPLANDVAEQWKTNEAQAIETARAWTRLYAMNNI

[18] = target: Neurotensin receptor type 1 (Homo sapiens, UniProt P30989); format: functional;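 also: Image-based confirmatory dose-response assay measuring agonist activity at NTR1; NTR1-expressing U2OS osteosarcoma cells imaged for beta-arrestin GFP spot formation; agonist potency where compounds increase beta-arrestin recruitment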
[19] = target: T6, Replicative DNA helicase DnaB (Mycobacterium tuberculosis, UniProt P9WMR3); experiment: DnaB intein splicing inhibitors, dose response, biochemical, cell-free fluorescence (AID 449749); format: functional
T6 sequence (P9WMR3 whole entry): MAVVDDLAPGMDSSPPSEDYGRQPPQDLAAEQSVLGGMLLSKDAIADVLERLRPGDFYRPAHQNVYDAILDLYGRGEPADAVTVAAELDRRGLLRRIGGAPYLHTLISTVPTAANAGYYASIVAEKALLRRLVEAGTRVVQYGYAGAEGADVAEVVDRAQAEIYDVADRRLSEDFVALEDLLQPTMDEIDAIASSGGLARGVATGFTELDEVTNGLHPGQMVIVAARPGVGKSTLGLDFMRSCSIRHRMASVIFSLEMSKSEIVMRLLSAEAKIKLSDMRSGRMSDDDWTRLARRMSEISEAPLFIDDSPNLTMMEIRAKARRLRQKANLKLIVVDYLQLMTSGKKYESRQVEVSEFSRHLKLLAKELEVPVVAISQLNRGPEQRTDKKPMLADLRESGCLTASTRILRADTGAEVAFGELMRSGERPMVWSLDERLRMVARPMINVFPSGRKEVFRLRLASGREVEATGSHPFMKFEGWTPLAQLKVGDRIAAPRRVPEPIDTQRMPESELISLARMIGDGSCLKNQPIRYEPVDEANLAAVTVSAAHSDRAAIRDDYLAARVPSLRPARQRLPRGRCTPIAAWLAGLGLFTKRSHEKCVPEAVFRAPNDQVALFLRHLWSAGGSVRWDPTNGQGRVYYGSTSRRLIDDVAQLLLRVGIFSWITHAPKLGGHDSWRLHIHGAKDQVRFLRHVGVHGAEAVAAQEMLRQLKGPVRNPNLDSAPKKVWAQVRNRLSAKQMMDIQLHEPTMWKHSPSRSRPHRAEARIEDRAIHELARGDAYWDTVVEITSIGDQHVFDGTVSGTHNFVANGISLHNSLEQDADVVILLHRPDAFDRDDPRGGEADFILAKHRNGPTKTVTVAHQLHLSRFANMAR

[20] = target: T5, Ubiquitin-conjugating enzyme E2 N; format: functional; remark: listed apart in the source
[21] = system: T-cell; experiment: inhibitors of CD8+ T cell–vesicle binding, dose response, mouse 2C CD8+ T cells, flow cytometry (AID 485284); format: functional
[22] = target: Photoreceptor-specific nuclear receptor (Homo sapiens, UniProt Q9Y5X4); format: functional, cell-based;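 also: CHO-S cells with Gal4-NCOR and VP16-NR2E3 two-hybrid luciferase reporter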
Photoreceptor-specific nuclear receptor, sequence (Q9Y5X4 whole entry, the tested form may be a part): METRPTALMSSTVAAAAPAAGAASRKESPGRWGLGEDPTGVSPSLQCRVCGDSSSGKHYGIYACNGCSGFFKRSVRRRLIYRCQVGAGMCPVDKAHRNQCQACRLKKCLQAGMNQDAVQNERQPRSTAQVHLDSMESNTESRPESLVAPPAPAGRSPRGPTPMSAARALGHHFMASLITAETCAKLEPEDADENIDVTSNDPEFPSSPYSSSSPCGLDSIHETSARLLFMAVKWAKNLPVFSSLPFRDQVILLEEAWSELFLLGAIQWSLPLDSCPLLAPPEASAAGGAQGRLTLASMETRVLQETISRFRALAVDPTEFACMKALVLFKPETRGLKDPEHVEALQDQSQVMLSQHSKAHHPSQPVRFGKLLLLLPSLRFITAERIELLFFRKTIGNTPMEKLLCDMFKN

Protein Wnt-3a, sequence (P27467 whole entry): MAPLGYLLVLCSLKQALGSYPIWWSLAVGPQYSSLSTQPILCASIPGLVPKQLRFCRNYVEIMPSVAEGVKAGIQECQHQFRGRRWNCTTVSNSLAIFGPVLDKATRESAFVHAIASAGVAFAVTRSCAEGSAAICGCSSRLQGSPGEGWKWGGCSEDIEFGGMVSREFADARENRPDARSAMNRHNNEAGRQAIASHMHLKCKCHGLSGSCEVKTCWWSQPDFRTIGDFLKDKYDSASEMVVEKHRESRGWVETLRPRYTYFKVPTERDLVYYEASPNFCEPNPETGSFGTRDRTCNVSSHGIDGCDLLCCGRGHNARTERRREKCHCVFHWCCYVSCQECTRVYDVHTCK
Neurotensin receptor type 1, sequence (P30989 whole entry): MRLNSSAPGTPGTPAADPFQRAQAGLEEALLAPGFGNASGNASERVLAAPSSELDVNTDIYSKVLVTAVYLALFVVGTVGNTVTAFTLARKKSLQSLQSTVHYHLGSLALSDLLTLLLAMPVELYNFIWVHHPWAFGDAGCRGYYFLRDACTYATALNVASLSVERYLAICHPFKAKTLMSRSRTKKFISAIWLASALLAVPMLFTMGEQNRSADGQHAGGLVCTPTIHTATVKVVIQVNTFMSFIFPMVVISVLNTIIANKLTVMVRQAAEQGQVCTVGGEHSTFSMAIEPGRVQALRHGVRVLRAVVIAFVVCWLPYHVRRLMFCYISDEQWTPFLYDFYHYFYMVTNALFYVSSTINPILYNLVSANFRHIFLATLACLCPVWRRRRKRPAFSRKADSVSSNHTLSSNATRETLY
Hepatocyte nuclear factor 4-alpha, sequence (P41235 whole entry, the tested form may be a part): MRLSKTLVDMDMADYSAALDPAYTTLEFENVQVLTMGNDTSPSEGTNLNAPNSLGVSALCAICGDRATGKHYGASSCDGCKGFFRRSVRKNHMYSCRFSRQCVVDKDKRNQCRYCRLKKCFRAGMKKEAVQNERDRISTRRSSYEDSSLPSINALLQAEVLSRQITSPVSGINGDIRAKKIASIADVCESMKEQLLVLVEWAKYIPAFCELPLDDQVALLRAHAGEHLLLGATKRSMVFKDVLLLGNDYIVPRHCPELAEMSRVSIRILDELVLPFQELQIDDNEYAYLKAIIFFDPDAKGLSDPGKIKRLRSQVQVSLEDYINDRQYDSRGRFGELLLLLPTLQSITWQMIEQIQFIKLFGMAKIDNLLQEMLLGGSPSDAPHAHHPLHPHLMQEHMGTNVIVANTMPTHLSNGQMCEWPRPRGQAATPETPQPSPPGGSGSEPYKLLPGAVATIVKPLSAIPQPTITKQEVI
Dual specificity protein phosphatase 3, sequence (P51452 whole entry): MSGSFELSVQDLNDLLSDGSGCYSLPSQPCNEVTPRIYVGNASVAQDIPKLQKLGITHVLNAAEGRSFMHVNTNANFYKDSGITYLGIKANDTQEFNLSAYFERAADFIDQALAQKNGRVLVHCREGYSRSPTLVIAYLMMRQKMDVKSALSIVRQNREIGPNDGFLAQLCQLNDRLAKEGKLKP
Tyrosine-protein phosphatase non-receptor type 5, sequence (P54829 whole entry): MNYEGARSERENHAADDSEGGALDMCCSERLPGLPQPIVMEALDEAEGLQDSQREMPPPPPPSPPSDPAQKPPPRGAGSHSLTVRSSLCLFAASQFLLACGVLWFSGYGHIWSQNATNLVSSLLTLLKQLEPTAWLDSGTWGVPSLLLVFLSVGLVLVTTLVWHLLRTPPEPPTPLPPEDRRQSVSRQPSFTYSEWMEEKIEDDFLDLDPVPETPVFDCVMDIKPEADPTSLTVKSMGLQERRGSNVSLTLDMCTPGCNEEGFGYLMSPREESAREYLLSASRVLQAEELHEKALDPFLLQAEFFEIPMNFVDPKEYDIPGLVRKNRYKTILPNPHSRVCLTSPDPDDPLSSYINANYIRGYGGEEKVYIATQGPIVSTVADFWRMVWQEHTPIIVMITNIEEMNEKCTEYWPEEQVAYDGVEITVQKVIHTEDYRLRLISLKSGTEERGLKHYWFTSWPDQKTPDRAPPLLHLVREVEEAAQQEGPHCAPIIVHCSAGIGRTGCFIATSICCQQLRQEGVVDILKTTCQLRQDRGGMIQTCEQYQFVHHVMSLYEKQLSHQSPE
Melanocortin receptor 4, sequence (P32245 whole entry): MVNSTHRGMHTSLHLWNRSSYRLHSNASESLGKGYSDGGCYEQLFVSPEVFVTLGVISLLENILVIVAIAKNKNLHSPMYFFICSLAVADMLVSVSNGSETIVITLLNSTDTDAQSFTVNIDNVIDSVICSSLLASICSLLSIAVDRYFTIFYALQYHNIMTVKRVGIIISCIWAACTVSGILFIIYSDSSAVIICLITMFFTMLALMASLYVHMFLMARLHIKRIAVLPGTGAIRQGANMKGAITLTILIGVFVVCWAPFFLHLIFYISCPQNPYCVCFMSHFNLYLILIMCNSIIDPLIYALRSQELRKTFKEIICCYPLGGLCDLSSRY
Tyrosine-protein phosphatase non-receptor type 11, sequence (Q06124 whole entry): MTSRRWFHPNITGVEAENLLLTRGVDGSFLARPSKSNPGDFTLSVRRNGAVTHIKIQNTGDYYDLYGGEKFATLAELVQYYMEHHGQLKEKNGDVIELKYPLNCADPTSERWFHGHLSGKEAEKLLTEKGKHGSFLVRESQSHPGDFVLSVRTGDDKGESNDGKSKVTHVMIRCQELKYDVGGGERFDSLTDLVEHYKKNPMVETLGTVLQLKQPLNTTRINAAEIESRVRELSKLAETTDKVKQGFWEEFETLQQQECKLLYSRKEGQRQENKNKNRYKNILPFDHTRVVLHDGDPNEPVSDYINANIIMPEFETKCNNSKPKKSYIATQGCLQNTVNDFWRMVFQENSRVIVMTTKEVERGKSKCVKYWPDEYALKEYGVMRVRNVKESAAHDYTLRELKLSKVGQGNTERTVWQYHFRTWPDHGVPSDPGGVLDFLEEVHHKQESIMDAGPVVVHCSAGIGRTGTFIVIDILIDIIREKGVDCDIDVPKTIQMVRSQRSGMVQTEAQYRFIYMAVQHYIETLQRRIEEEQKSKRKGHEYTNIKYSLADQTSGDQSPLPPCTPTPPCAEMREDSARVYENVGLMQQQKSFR

SMILES: Cc1sc2ncnc(NCC(C)(C)N3CCOCC3)c2c1C
- AC50 ([1]; Rattus norvegicus, INS1): 2.96 µM (active)
- AC50 [2]: 4.09 µM (active)
- IC50 [3]: 0.942 µM (active)
- EC50 [4]: 0.841 µM (active)
- AC50 [5]: 1.36 µM (active)
- AC50 [6]: 3 µM (active)

SMILES: O=C(NC1CCCCC1)C(c1cc2ccccc2o1)n1c(=O)c(-c2ccco2)nc2ccccc21 (configuration not stated)
- IC50 [7]: 2.19 µM (active)

SMILES: S=C(c1ccc(Br)cc1)N1CCN(Cc2ccccc2)CC1
- IC50 [8]: 1.81 µM (active)
- IC50 [9]: 22.7 µM (inactive)
- IC50 [10]: 0.719 µM (active)

SMILES: CCCCCCCCCCOC(=O)Cn1c(COc2ccc(OC)cc2)[n+](C)c2ccccc21
- CC50 [11]: > 25 µM (active)
- AC50 [12]: 38.2 µM (active)
- AC50 ([1]; Rattus norvegicus, INS1): 3.65 µM (active)
- AC50 ([1]; ins1): 3.47 µM (active)
- EC50 [13]: 10.6 µM (active) and 11.1 µM (active)
- IC50 [14]: 10.7 µM (active) and 13.4 µM (active)
- IC50 [15]: 19.1 µM (active)
- EC50 [16]: > 89.2 µM (inactive)
- IC50 [17]: 12.5 µM (active)
- EC50 [18]: 15.8 µM (active)
- AC50 [19]: 3.97 µM (active) and 4.05 µM (active)
- AC50 [5]: 2.01 µM (active)
- AC50 [6]: 3.44 µM (active)
- IC50 [20]: 11 µM (active)

SMILES: Cc1ccc(OCCOC(=O)c2cc(S(=O)(=O)N3CCCCC3)ccc2N2CCOCC2)cc1
- IC50 [3]: 4.83 µM (active)
- EC50 [21]: 11.8 µM (active)
- IC50 [22]: 12.6 µM (inactive)
